In ChEMBL document CHEMBL4507329, “Data for DCP probe BTZO-1” (2021):

Legend:
[1] = molecular target: Cyclin-dependent kinase 4 (Homo sapiens) (UniProt P11802); settings: Compound concentration 1000.0 nM
[2] = system: Epidermal growth factor receptor (Homo sapiens), P00533 [L858R,T790M]; settings: Compound concentration 1000.0 nM
[3] = molecular target: Wee1-like protein kinase (Homo sapiens) (UniProt P30291); settings: Compound concentration 1000.0 nM
[4] = molecular target: Mitogen-activated protein kinase 9 (Homo sapiens) (UniProt P45984); settings: Compound concentration 1000.0 nM
[5] = molecular target: TGF-beta receptor type-1 (Homo sapiens) (UniProt P36897); settings: Compound concentration 1000.0 nM
[6] = molecular target: Rho-associated protein kinase 1 (Homo sapiens) (UniProt Q13464); settings: Compound concentration 1000.0 nM
[7] = molecular target: Mitogen-activated protein kinase kinase kinase 19 (Homo sapiens) (UniProt Q56UN5); settings: Compound concentration 1000.0 nM
[8] = molecular target: Serine/threonine-protein kinase SIK1 (Homo sapiens) (UniProt P57059); settings: Compound concentration 1000.0 nM
[9] = system: Tyrosine-protein kinase ABL1 (Homo sapiens), P00519 [F317L]; settings: Compound concentration 1000.0 nM
[10] = molecular target: Tyrosine-protein kinase ABL1 (Homo sapiens) (UniProt P00519); settings: Compound concentration 1000.0 nM
[11] = molecular target: MAP/microtubule affinity-regulating kinase 3 (Homo sapiens) (UniProt P27448); settings: Compound concentration 1000.0 nM
[12] = molecular target: Serine/threonine-protein kinase Nek5 (Homo sapiens) (UniProt Q6P3R8); settings: Compound concentration 1000.0 nM
[13] = molecular target: Cyclin-dependent kinase 15 (Homo sapiens) (UniProt Q96Q40); settings: Compound concentration 1000.0 nM
[14] = molecular target: Ephrin type-A receptor 5 (Homo sapiens) (UniProt P54756); settings: Compound concentration 1000.0 nM
[15] = molecular target: Serine/threonine-protein kinase MARK1 (Homo sapiens) (UniProt Q9P0L2); settings: Compound concentration 1000.0 nM
[16] = molecular target: Mitogen-activated protein kinase 12 (Homo sapiens) (UniProt P53778); settings: Compound concentration 1000.0 nM
[17] = molecular target: Cyclin-dependent kinase 11B (Homo sapiens) (UniProt P21127); settings: Compound concentration 1000.0 nM
[18] = molecular target: Tyrosine-protein kinase ZAP-70 (Homo sapiens) (UniProt P43403); settings: Compound concentration 1000.0 nM
[19] = molecular target: Mitogen-activated protein kinase kinase kinase kinase 1 (Homo sapiens) (UniProt Q92918); settings: Compound concentration 1000.0 nM
[20] = molecular target: Ribosomal protein S6 kinase alpha-6 (Homo sapiens) (UniProt Q9UK32); settings: Compound concentration 1000.0 nM
[21] = molecular target: Serine/threonine-protein kinase 32B (Homo sapiens) (UniProt Q9NY57); settings: Compound concentration 1000.0 nM
[22] = molecular target: Dual specificity mitogen-activated protein kinase kinase 6 (Homo sapiens) (UniProt P52564); settings: Compound concentration 1000.0 nM
[23] = molecular target: Vascular endothelial growth factor receptor 3 (Homo sapiens) (UniProt P35916); settings: Compound concentration 1000.0 nM
[24] = molecular target: Mitogen-activated protein kinase kinase kinase 11 (Homo sapiens) (UniProt Q16584); settings: Compound concentration 1000.0 nM
[25] = molecular target: AP2-associated protein kinase 1 (Homo sapiens) (UniProt Q2M2I8); settings: Compound concentration 1000.0 nM
[26] = molecular target: Myosin-IIIb (Homo sapiens) (UniProt Q8WXR4); settings: Compound concentration 1000.0 nM
[27] = molecular target: Tyrosine-protein kinase receptor Tie-1 (Homo sapiens) (UniProt P35590); settings: Compound concentration 1000.0 nM
[28] = molecular target: Phosphatidylinositol 4,5-bisphosphate 3-kinase catalytic subunit alpha isoform (Homo sapiens) (UniProt P42336); settings: Compound concentration 1000.0 nM
[29] = molecular target: Cytoplasmic tyrosine-protein kinase BMX (Homo sapiens) (UniProt P51813); settings: Compound concentration 1000.0 nM
[30] = molecular target: Serine/threonine-protein kinase DCLK3 (Homo sapiens) (UniProt Q9C098); settings: Compound concentration 1000.0 nM
[31] = molecular target: Ephrin type-B receptor 1 (Homo sapiens) (UniProt P54762); settings: Compound concentration 1000.0 nM
[32] = molecular target: Alpha-2A adrenergic receptor (Homo sapiens) (UniProt P08913); settings: Compound concentration 10.0 uM
[33] = molecular target: cAMP-dependent protein kinase catalytic subunit PRKX (Homo sapiens) (UniProt P51817); settings: Compound concentration 1000.0 nM
[34] = molecular target: Dual specificity protein kinase CLK3 (Homo sapiens) (UniProt P49761); settings: Compound concentration 1000.0 nM
[35] = molecular target: GABA-A receptor; anion channel (Rattus norvegicus) (UniProt O09028+P15431+P18506+P18508+P19969+P20236+P23574+P23576+P28471+P28473+P30191+P62813+P63079+P63138+Q91ZM7+Q9ES14); settings: Compound concentration 10.0 uM
[36] = molecular target: Serine/threonine-protein kinase Nek7 (Homo sapiens) (UniProt Q8TDX7); settings: Compound concentration 1000.0 nM
[37] = molecular target: Serine/threonine-protein kinase STK11 (Homo sapiens) (UniProt Q15831); settings: Compound concentration 1000.0 nM
[38] = molecular target: Cyclin-dependent kinase 7 (Homo sapiens) (UniProt P50613); settings: Compound concentration 1000.0 nM
[39] = molecular target: Tyrosine-protein kinase Fgr (Homo sapiens) (UniProt P09769); settings: Compound concentration 1000.0 nM
[40] = molecular target: Protein-tyrosine kinase 6 (Homo sapiens) (UniProt Q13882); settings: Compound concentration 1000.0 nM
[41] = molecular target: Serine/threonine-protein kinase PAK 4 (Homo sapiens) (UniProt O96013); settings: Compound concentration 1000.0 nM
[42] = molecular target: Ephrin type-A receptor 6 (Homo sapiens) (UniProt Q9UF33); settings: Compound concentration 1000.0 nM
[43] = molecular target: Rhodopsin kinase GRK7 (Homo sapiens) (UniProt Q8WTQ7); settings: Compound concentration 1000.0 nM
[44] = system: Tyrosine-protein kinase ABL1 (Homo sapiens), P00519 [M351T]; settings: Compound concentration 1000.0 nM

Serine/threonine-protein kinase SIK1 (Homo sapiens), sequence (P57059 whole entry): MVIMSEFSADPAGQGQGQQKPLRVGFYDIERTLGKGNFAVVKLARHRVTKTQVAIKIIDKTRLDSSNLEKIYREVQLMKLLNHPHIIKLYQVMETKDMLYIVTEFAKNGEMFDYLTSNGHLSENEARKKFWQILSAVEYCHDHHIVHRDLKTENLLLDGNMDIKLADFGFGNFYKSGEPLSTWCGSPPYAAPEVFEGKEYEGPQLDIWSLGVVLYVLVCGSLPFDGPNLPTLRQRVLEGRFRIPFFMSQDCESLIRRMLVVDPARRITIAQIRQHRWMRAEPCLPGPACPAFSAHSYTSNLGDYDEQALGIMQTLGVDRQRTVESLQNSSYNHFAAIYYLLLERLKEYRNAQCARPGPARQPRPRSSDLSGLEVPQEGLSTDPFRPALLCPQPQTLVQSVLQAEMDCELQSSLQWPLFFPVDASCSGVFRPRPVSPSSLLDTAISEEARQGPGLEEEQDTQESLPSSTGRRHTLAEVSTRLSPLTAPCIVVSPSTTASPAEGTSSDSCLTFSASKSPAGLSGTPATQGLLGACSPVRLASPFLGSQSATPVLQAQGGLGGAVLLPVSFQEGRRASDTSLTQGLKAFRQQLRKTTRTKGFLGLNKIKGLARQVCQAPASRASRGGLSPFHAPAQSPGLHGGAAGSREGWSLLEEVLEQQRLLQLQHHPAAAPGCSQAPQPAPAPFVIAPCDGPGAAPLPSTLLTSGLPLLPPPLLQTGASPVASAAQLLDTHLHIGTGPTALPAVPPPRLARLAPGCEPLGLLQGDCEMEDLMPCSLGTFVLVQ
Tyrosine-protein kinase receptor Tie-1 (Homo sapiens), sequence (P35590 whole entry, canonical isoform): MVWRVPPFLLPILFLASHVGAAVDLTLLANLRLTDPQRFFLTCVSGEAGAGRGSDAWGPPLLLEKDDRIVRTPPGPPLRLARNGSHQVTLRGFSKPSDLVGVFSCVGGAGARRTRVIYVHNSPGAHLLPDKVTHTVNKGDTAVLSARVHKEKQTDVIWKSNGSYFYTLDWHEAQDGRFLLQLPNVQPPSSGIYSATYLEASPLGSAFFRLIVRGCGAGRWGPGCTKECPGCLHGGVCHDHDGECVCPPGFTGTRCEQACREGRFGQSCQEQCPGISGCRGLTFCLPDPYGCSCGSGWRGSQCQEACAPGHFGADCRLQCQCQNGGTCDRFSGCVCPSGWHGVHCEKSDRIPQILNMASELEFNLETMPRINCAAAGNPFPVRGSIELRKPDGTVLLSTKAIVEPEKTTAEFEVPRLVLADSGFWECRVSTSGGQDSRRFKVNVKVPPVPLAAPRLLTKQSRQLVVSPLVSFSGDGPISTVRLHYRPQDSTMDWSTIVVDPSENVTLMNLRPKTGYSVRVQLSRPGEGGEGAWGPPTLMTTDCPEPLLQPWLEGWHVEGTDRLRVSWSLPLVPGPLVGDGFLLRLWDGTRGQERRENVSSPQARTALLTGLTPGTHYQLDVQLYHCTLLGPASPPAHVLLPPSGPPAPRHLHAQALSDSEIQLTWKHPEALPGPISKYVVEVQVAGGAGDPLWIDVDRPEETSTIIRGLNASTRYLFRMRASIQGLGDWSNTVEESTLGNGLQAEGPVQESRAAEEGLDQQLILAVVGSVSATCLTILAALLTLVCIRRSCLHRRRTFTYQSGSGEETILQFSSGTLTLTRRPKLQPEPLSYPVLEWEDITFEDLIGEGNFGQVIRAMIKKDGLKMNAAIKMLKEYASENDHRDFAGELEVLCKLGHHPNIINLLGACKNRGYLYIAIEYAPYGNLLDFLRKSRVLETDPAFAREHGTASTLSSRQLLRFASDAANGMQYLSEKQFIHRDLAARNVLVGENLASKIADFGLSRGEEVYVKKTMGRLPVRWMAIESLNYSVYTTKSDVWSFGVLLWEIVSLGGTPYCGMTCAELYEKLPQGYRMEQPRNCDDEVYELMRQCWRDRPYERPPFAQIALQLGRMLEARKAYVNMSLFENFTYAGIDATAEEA
Rho-associated protein kinase 1 (Homo sapiens), sequence (Q13464 2-1354 limits assumed): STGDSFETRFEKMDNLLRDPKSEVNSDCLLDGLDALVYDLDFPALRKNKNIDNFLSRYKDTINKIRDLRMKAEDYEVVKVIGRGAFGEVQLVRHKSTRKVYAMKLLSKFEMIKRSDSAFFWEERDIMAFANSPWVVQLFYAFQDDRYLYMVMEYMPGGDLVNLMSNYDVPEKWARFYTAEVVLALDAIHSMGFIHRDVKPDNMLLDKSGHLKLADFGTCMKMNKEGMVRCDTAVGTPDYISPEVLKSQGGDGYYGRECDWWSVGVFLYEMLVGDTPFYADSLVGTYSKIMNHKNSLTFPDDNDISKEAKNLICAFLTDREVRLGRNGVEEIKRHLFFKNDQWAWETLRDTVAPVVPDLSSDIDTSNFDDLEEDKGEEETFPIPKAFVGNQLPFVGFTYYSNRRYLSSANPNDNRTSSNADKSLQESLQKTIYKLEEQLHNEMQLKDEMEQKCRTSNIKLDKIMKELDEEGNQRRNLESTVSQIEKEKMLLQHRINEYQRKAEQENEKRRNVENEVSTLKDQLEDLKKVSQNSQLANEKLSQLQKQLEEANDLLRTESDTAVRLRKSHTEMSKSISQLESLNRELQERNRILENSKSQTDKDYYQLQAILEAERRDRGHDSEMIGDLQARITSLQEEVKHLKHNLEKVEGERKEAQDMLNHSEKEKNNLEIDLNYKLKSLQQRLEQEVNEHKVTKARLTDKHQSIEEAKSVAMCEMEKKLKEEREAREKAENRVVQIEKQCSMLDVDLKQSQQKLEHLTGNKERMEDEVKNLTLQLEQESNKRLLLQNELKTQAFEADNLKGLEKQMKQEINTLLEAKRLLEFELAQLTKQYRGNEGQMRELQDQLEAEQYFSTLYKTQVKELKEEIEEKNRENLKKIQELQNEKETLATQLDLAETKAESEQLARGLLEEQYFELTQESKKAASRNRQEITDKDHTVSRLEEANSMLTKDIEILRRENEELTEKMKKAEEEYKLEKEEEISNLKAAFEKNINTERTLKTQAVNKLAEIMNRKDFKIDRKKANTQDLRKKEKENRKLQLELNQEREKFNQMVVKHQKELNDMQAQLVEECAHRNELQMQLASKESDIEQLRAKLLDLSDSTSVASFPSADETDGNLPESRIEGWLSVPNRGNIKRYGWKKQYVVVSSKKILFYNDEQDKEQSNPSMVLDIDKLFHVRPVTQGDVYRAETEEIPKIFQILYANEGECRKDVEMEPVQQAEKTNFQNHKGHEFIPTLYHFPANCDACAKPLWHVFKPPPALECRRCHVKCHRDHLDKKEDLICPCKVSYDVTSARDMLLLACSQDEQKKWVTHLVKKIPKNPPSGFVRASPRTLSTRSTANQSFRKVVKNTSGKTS
Phosphatidylinositol 4,5-bisphosphate 3-kinase catalytic subunit alpha isoform (Homo sapiens), sequence (P42336 whole entry, canonical isoform): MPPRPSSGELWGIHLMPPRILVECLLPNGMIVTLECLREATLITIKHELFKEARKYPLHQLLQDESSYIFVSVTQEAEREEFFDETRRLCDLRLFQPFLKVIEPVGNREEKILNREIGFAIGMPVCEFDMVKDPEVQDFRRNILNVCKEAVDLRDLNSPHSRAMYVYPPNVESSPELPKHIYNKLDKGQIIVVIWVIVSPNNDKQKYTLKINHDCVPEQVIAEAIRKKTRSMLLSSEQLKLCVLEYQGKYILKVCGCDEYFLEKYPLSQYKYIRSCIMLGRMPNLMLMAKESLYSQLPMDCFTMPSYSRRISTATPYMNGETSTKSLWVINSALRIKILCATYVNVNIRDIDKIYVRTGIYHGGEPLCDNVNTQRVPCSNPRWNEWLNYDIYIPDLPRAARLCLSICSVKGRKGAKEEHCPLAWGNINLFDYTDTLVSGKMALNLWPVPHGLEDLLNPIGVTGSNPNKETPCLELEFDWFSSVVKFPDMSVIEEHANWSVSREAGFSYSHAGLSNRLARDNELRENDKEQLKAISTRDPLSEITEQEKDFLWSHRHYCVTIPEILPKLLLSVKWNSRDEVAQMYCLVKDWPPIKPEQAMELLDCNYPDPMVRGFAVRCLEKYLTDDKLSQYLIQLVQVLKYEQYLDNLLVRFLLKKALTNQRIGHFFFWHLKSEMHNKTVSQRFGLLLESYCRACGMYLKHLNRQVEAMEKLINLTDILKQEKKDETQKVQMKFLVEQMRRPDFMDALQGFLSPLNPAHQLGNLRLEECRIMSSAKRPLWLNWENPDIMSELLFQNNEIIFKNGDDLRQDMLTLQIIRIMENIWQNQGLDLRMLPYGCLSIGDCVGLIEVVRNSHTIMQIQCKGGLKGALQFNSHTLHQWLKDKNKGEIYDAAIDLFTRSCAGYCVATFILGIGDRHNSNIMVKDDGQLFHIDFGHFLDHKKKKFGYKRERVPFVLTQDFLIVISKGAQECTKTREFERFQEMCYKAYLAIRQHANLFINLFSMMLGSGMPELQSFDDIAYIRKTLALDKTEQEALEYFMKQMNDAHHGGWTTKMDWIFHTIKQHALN
TGF-beta receptor type-1 (Homo sapiens), sequence (P36897 whole entry): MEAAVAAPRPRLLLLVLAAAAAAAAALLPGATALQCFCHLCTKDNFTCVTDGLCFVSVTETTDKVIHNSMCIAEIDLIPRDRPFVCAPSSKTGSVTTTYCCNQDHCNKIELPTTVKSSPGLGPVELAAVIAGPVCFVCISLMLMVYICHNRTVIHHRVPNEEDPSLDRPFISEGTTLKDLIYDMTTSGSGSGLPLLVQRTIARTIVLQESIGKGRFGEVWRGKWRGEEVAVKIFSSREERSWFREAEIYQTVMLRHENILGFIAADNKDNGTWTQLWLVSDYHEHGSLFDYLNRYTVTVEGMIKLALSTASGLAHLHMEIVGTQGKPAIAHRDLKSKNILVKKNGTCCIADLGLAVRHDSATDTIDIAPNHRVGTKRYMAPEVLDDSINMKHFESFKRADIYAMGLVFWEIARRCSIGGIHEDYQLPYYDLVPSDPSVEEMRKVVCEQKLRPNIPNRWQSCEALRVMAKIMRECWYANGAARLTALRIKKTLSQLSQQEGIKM

O=c1nc(-c2ccccn2)sc2ccccc12 [BTZO-1]
active: inhibition [35] 55.9%
inactive: residual activity [1] 90% | residual activity [2] 100% | residual activity [3] 100% | residual activity [4] 100% | residual activity [5] 97% | residual activity [6] 100% | residual activity [7] 86% | residual activity [8] 95% | residual activity [9] 100% | residual activity [10] 93% | residual activity [11] 89% | residual activity [12] 78% | residual activity [13] 75% | residual activity [14] 94% | residual activity [15] 100% | residual activity [16] 58% | residual activity [17] 100% | residual activity [18] 100% | residual activity [19] 100% | residual activity [20] 95% | residual activity [21] 100% | residual activity [22] 100% | residual activity [23] 84% | residual activity [24] 100% | residual activity [25] 100% | residual activity [26] 79% | residual activity [27] 91% | residual activity [28] 100% | residual activity [29] 98% | residual activity [30] 97% | residual activity [31] 88% | inhibition [32] 0.132% | residual activity [33] 100% | residual activity [34] 96% | residual activity [36] 75% | residual activity [37] 79% | residual activity [38] 69% | residual activity [39] 100% | residual activity [40] 100% | residual activity [41] 86% | residual activity [42] 100% | residual activity [43] 89% | residual activity [44] 100%

O=C1NC(c2ccccn2)Sc2ccccc21 (stereo not drawn) [BTZO-4]
inactive: residual activity [1] 81% | residual activity [2] 100% | residual activity [3] 100% | residual activity [4] 100% | residual activity [5] 100% | residual activity [6] 82% | residual activity [7] 92% | residual activity [8] 88% | residual activity [9] 100% | residual activity [10] 69% | residual activity [11] 95% | residual activity [12] 72% | residual activity [13] 63% | residual activity [14] 85% | residual activity [15] 99% | residual activity [16] 51% | residual activity [17] 100% | residual activity [18] 90% | residual activity [19] 95% | residual activity [20] 96% | residual activity [21] 100% | residual activity [22] 100% | residual activity [23] 70% | residual activity [24] 94% | residual activity [25] 100% | residual activity [26] 96% | residual activity [27] 65% | residual activity [28] 91% | residual activity [29] 100% | residual activity [30] 69% | residual activity [31] 90% | inhibition [32] 12.7% | residual activity [33] 100% | residual activity [34] 97% | inhibition [35] 6.34% | residual activity [36] 68% | residual activity [37] 87% | residual activity [38] 77% | residual activity [39] 100% | residual activity [40] 100% | residual activity [41] 84% | residual activity [42] 79% | residual activity [43] 86% | residual activity [44] 100%
